Reference: PubChem BioAssay AID248 (DTP/NCI, 2004)
Toxic doses and inconclusive results are not listed. Rule as the data show it: active = T/C of 150% or more; inactive = T/C below 125%.

Test system: L1210 leukemia ip in BDF1 mice, survival T/C
Test: NCI In Vivo Anticancer Drug Screen. Data for tumor model L1210 Leukemia (intraperitoneal) in B6D2F1 (BDF1) mice
Details: endpoint: mean survival time, higher = longer survival
Method in brief: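 In this screen, tumor-bearing mice given compound are compared to those given vehicle, and their survival values are reported as a treated-to-control quotient.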

Measured: T/C

c1ccc(CC[n+]2ccccc2)cc1
inactive: dose: 10.0 mg/kg/injection, schedule: Q01DX001 (ip), vehicle: saline 106 % of control | dose: 20.0 mg/kg/injection, schedule: Q01DX001 (ip), vehicle: saline 94 % of control | dose: 40.0 mg/kg/injection, schedule: Q01DX001 (ip), vehicle: saline 95 % of control

O=c1cc(/C=N/O)c2cccc3c2n1CCC3
inactive: dose: 100.0 mg/kg/injection, schedule: Q01DX001 (ip), vehicle: saline with Tween-80 100 % of control | dose: 200.0 mg/kg/injection, schedule: Q01DX001 (ip), vehicle: saline with Tween-80 91 % of control | dose: 400.0 mg/kg/injection, schedule: Q01DX001 (ip), vehicle: saline with Tween-80 94 % of control

ClCc1ccc(-c2ccc(CCl)cc2)cc1
inactive: dose: 30.0 mg/kg/injection, schedule: Q01DX015 (ip), vehicle: carboxymethylcellulose (CMC) 116 % of control | dose: 60.0 mg/kg/injection, schedule: Q01DX015 (ip), vehicle: carboxymethylcellulose (CMC) 106 % of control | dose: 100.0 mg/kg/injection, schedule: Q01DX001 (ip), vehicle: carboxymethylcellulose (CMC) 100 % of control | dose: 120.0 mg/kg/injection, schedule: Q01DX015 (ip), vehicle: carboxymethylcellulose (CMC) 102 % of control | dose: 200.0 mg/kg/injection, schedule: Q01DX001 (ip), vehicle: carboxymethylcellulose (CMC) 104 % of control | dose: 240.0 mg/kg/injection, schedule: Q01DX015 (ip), vehicle: carboxymethylcellulose (CMC) 98 % of control | dose: 300.0 mg/kg/injection, schedule: Q01DX015 (ip), vehicle: carboxymethylcellulose (CMC) 108 % of control | dose: 400.0 mg/kg/injection, schedule: Q01DX001 (ip), vehicle: carboxymethylcellulose (CMC) 105 % of control

CC(C)(C)C(=O)N/N=C\c1ccc([N+](=O)[O-])s1
inactive: dose: 100.0 mg/kg/injection, schedule: Q04DX003 (ip), vehicle: saline 93 % of control | dose: 200.0 mg/kg/injection, schedule: Q04DX003 (ip), vehicle: saline 87 % of control | dose: 400.0 mg/kg/injection, schedule: Q04DX003 (ip), vehicle: saline 94 % of control

O=C1c2ccccc2C(=O)c2cc3nc4c5ccccc5c5ccccc5c4nc3cc21
inactive: dose: 100.0 mg/kg/injection, schedule: Q01DX009 (ip), vehicle: saline with Tween-80 93 % of control | dose: 100.0 mg/kg/injection, schedule: Q04DX002 (ip), vehicle: saline with Tween-80 103 % of control | dose: 200.0 mg/kg/injection, schedule: Q01DX009 (ip), vehicle: saline with Tween-80 90 % of control | dose: 200.0 mg/kg/injection, schedule: Q04DX002 (ip), vehicle: saline with Tween-80 97 % of control | dose: 400.0 mg/kg/injection, schedule: Q01DX009 (ip), vehicle: saline with Tween-80 97 % of control | dose: 400.0 mg/kg/injection, schedule: Q04DX002 (ip), vehicle: saline with Tween-80 100 % of control

Cc1cc(=O)[nH]c2c(Br)cccc12
inactive: dose: 75.0 mg/kg/injection, schedule: Q04DX003 (ip), vehicle: Klucel (hydroxypropylcellulose) (HPC) 87 % of control | dose: 150.0 mg/kg/injection, schedule: Q04DX003 (ip), vehicle: Klucel (hydroxypropylcellulose) (HPC) 97 % of control | dose: 300.0 mg/kg/injection, schedule: Q04DX003 (ip), vehicle: Klucel (hydroxypropylcellulose) (HPC) 97 % of control

COC(=O)c1nnc(C(=O)OC)nn1
inactive: dose: 100.0 mg/kg/injection, schedule: Q04DX002 (ip), vehicle: saline 96 % of control | dose: 200.0 mg/kg/injection, schedule: Q04DX002 (ip), vehicle: saline 115 % of control | dose: 400.0 mg/kg/injection, schedule: Q04DX002 (ip), vehicle: saline 96 % of control
